From patent US12077503B2, “Substituted cyclic amides and their use as herbicides” (FMC CORPORATION, priority 2015, dated 2024)

Columns and labels:
Format in all cases: in vivo
[1] = system: ragweed (common ragweed, Ambrosia elatior); test: Test A preemergence; conditions: Ambrosia artemisiifolia, pre-emergence, 240 h, Preemergence; for pest or weed control at 31 g/ha: 31 g ai/ha, 0 to 100 scale where 0 is no effect and 100 is complete control, read-out: Ragweed plant response rating; for pest or weed control at 125 g/ha: 125 g ai/ha, 0 to 100 scale (0 no effect, 100 complete control), read-out: Plant response rating, Ragweed
Outline: (§1)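 Seeded soil received test chemicals as a preemergence directed spray, and seedlings at one to two leaves, 2–10 cm tall, received them postemergence, in a non-phytotoxic, surfactant-containing solvent mixture. Pots were held in a greenhouse for approximately 10 d, then rated for injury from 0, no effect, to 100, complete control.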

[2] = system: pigweed (Amaranthus retroflexus); test: Test A preemergence; conditions: Amaranthus retroflexus, pre-emergence, 240 h, Preemergence; for pest or weed control at 31 g/ha: 31 g ai/ha, 0 to 100 scale where 0 is no effect and 100 is complete control, read-out: Pigweed plant response rating; for pest or weed control at 125 g/ha: 125 g ai/ha, 0 to 100 scale (0 no effect, 100 complete control), read-out: Plant response rating, Pigweed
[3] = system: Kochia (Kochia scoparia); test: Test A preemergence; conditions: Bassia scoparia, pre-emergence, 240 h, Preemergence; for pest or weed control at 31 g/ha: 31 g ai/ha, 0 to 100 scale where 0 is no effect and 100 is complete control, read-out: Kochia plant response rating; for pest or weed control at 125 g/ha: 125 g ai/ha, 0 to 100 scale (0 no effect, 100 complete control), read-out: Plant response rating, Kochia
Outline: as §1

[4] = system: ryegrass, Italian (Italian ryegrass, Lolium multiflorum); test: Test A preemergence; conditions: Lolium multiflorum, pre-emergence, 240 h, Preemergence; for pest or weed control at 31 g/ha: 31 g ai/ha, 0 to 100 scale where 0 is no effect and 100 is complete control, read-out: Ryegrass, Italian plant response rating; for pest or weed control at 125 g/ha: 125 g ai/ha, 0 to 100 scale (0 no effect, 100 complete control), read-out: Plant response rating, Ryegrass, Italian
Outline: as §1

[5] = system: barnyardgrass (Echinochloa crus-galli); test: Test A preemergence; conditions: Echinochloa crus-galli, pre-emergence, 240 h, Preemergence; for pest or weed control at 31 g/ha: 31 g ai/ha, 0 to 100 scale where 0 is no effect and 100 is complete control, read-out: Barnyardgrass plant response rating; for pest or weed control at 125 g/ha: 125 g ai/ha, 0 to 100 scale (0 no effect, 100 complete control), read-out: Plant response rating, Barnyardgrass
Outline: as §1

[6] = system: giant foxtail (Setaria faberii); test: Test A postemergence; conditions: Setaria faberi, post-emergence, 240 h, Postemergence, read-out: Foxtail, Giant plant response rating (0 to 100 scale); for pest or weed control at 125 g/ha: 125 g ai/ha, visual rating about 10 d after treatment; for pest or weed control at 31 g/ha: 31 g ai/ha, 0 is no effect, 100 is complete control
Outline: as §1

[7] = system: corn (Zea mays); test: Test A postemergence; conditions: Zea mays, post-emergence, 240 h, Postemergence, read-out: Corn plant response rating (0 to 100 scale); for plant injury at 125 g/ha: 125 g ai/ha, visual rating about 10 d after treatment; for plant injury at 31 g/ha: 31 g ai/ha, 0 is no effect, 100 is complete control
Outline: as §1

[8] = system: ragweed (common ragweed, Ambrosia elatior); test: Test A postemergence; conditions: Ambrosia artemisiifolia, post-emergence, 240 h, Postemergence, read-out: Ragweed plant response rating (0 to 100 scale); for pest or weed control at 125 g/ha: 125 g ai/ha, visual rating about 10 d after treatment; for pest or weed control at 31 g/ha: 31 g ai/ha, 0 is no effect, 100 is complete control
Outline: as §1

[9] = system: blackgrass (Alopecurus myosuroides); test: Test A postemergence; conditions: Alopecurus myosuroides, post-emergence, 240 h, Postemergence, read-out: Blackgrass plant response rating (0 to 100 scale); for pest or weed control at 125 g/ha: 125 g ai/ha, visual rating about 10 d after treatment; for pest or weed control at 31 g/ha: 31 g ai/ha, 0 is no effect, 100 is complete control
Outline: as §1

[10] = system: pigweed (Amaranthus retroflexus); test: Test A postemergence; conditions: Amaranthus retroflexus, post-emergence, 240 h, Postemergence, read-out: Pigweed plant response rating (0 to 100 scale); for pest or weed control at 125 g/ha: 125 g ai/ha, visual rating about 10 d after treatment; for pest or weed control at 31 g/ha: 31 g ai/ha, 0 is no effect, 100 is complete control
Outline: as §1

[11] = system: Kochia (Kochia scoparia); test: Test A postemergence; conditions: Bassia scoparia, post-emergence, 240 h, Postemergence, read-out: Kochia plant response rating (0 to 100 scale); for pest or weed control at 125 g/ha: 125 g ai/ha, visual rating about 10 d after treatment; for pest or weed control at 31 g/ha: 31 g ai/ha, 0 is no effect, 100 is complete control
Outline: as §1

[12] = system: ryegrass, Italian (Italian ryegrass, Lolium multiflorum); test: Test A postemergence; conditions: Lolium multiflorum, post-emergence, 240 h, Postemergence, read-out: Ryegrass, Italian plant response rating (0 to 100 scale); for pest or weed control at 125 g/ha: 125 g ai/ha, visual rating about 10 d after treatment; for pest or weed control at 31 g/ha: 31 g ai/ha, 0 is no effect, 100 is complete control
Outline: as §1

[13] = system: barnyardgrass (Echinochloa crus-galli); test: Test A postemergence; conditions: Echinochloa crus-galli, post-emergence, 240 h, Postemergence; for pest or weed control at 125 g/ha: 125 g ai/ha, visual rating about 10 d after treatment, read-out: Barnyardgrass plant response rating (0 to 100 scale, 0 no effect, 100 complete control); for pest or weed control at 31 g/ha: 31 g ai/ha, 0 is no effect, 100 is complete control, read-out: Barnyardgrass plant response rating (0 to 100 scale)
Outline: as §1

[14] = system: wheat (Triticum aestivum); test: Test A postemergence; conditions: Triticum aestivum, post-emergence, 240 h, Postemergence, read-out: Wheat plant response rating (0 to 100 scale); for plant injury at 125 g/ha: 125 g ai/ha, visual rating about 10 d after treatment; for plant injury at 31 g/ha: 31 g ai/ha, 0 is no effect, 100 is complete control
Outline: as §1

[15] = system: Galium (catchweed bedstraw, Galium aparine); test: Test A postemergence; conditions: Galium, post-emergence, 240 h, Postemergence, read-out: Galium plant response rating (0 to 100 scale); for pest or weed control at 125 g/ha: 125 g ai/ha, visual rating about 10 d after treatment; for pest or weed control at 31 g/ha: 31 g ai/ha, 0 is no effect, 100 is complete control
Outline: as §1

Structure (SMILES): CN1C[C@H](c2csc3c2CCC(F)(F)C3)[C@@H](C(=O)Nc2ccc(F)c(F)c2F)C1=O (racemic) [Compound 1368]
- pest or weed control at 31 g/ha [1]: 0%
- pest or weed control at 125 g/ha [1]: 0%
- pest or weed control at 31 g/ha [2]: 0%
- pest or weed control at 125 g/ha [2]: 0%
- pest or weed control at 31 g/ha [3]: 0%
- pest or weed control at 125 g/ha [3]: 0%
- pest or weed control at 31 g/ha [4]: 0%
- pest or weed control at 125 g/ha [4]: 0%
- pest or weed control at 31 g/ha [5]: 0%
- pest or weed control at 125 g/ha [5]: 100%
- pest or weed control at 125 g/ha [6]: 40%
- pest or weed control at 31 g/ha [6]: 0%
- plant injury at 125 g/ha [7]: 0%
- plant injury at 31 g/ha [7]: 0%
- pest or weed control at 125 g/ha [8]: 0%
- pest or weed control at 31 g/ha [8]: 0%
- pest or weed control at 125 g/ha [9]: 30%
- pest or weed control at 31 g/ha [9]: 0%
- pest or weed control at 125 g/ha [10]: 0%
- pest or weed control at 31 g/ha [10]: 0%
- pest or weed control at 125 g/ha [11]: 20%
- pest or weed control at 31 g/ha [11]: 0%
- pest or weed control at 125 g/ha [12]: 40%
- pest or weed control at 31 g/ha [12]: 20%
- pest or weed control at 125 g/ha [13]: 50%
- pest or weed control at 31 g/ha [13]: 20%
- plant injury at 125 g/ha [14]: 0%
- plant injury at 31 g/ha [14]: 0%
- pest or weed control at 125 g/ha [15]: 30%
- pest or weed control at 31 g/ha [15]: 0%

Structure (SMILES): CN1C[C@H](c2csc3c2CCC(F)(F)C3)[C@@H](C(=O)Nc2cccc(F)c2F)C1=O (racemic) [Compound 1369]
- pest or weed control at 31 g/ha [1]: 50%
- pest or weed control at 125 g/ha [1]: 70%
- pest or weed control at 31 g/ha [2]: 0%
- pest or weed control at 125 g/ha [2]: 0%
- pest or weed control at 31 g/ha [3]: 0%
- pest or weed control at 125 g/ha [3]: 0%
- pest or weed control at 31 g/ha [4]: 0%
- pest or weed control at 125 g/ha [4]: 0%
- pest or weed control at 31 g/ha [5]: 0%
- pest or weed control at 125 g/ha [5]: 100%
- pest or weed control at 125 g/ha [6]: 50%
- pest or weed control at 31 g/ha [6]: 20%
- plant injury at 125 g/ha [7]: 0%
- plant injury at 31 g/ha [7]: 0%
- pest or weed control at 125 g/ha [8]: 20%
- pest or weed control at 31 g/ha [8]: 0%
- pest or weed control at 125 g/ha [9]: 20%
- pest or weed control at 31 g/ha [9]: 0%
- pest or weed control at 125 g/ha [10]: 20%
- pest or weed control at 31 g/ha [10]: 20%
- pest or weed control at 125 g/ha [11]: 20%
- pest or weed control at 31 g/ha [11]: 0%
- pest or weed control at 125 g/ha [12]: 30%
- pest or weed control at 31 g/ha [12]: 0%
- pest or weed control at 125 g/ha [13]: 60%
- pest or weed control at 31 g/ha [13]: 20%
- plant injury at 125 g/ha [14]: 0%
- plant injury at 31 g/ha [14]: 0%
- pest or weed control at 125 g/ha [15]: 30%
- pest or weed control at 31 g/ha [15]: 0%
